Broadly, the viability, T/C is the result in the treated group divided by that in the control group, in per cent.
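Also: spheroids exposed to compounds for seven days; 100% = DMSO vehicle control viability.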

The first experiment deals with 889142-216-R-J1-PDC complex spheroid viability. The experiment is described as follows: Anticancer human tumor 889142-216-R-J1-PDC patient-derived bladder carcinoma cell line growth inhibition [POLQ]. Conditions: second compound 0.316 µM; first compound 1 µM; stronger effect = lower value. The essentials: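 PDC + HUVEC + MSC complex spheroids; POLQ inhibitors ± partner drugs; top conc. at/near clinical Cmax, else 10 microM (SN-38 1 microM), half-log dilutions; 37 degrees C, 5% CO2.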
`CC1COCCN1c1cc(C2(O)CC3CCC(C2)O3)c2cnn(-c3ccn[nH]3)c2n1` (stereo unspecified) + COC1C(OC(N)=O)C(O)C(Oc2ccc3c(O)c(NC(=O)c4ccc(O)c(CC=C(C)C)c4)c(=O)oc3c2C)OC1(C)C: the viability, T/C was 37.5%.
Same read-out and setting: with `O=C(Nc1ccc(O)c(NS(=O)(=O)c2ccc(F)cc2)c1)c1ccc(-c2ccccc2)cc1` + COC1C(OC(N)=O)C(O)C(Oc2ccc3c(O)c(NC(=O)c4ccc(O)c(CC=C(C)C)c4)c(=O)oc3c2C)OC1(C)C the figure was 125%; with `COc1cc(C2c3cc4c(cc3C(OC3OC5COC(C)OC5C(O)C3O)C3COC(=O)C23)OCO4)cc(OC)c1O` (stereo unspecified) + Cc1cccc(N(C)C(=O)C2C(O)CCN2c2nc(C)cc(C(F)(F)F)c2C#N)c1, 64%.

The experiment is the same for the next values; noted with them: second compound 0.316 µM; first compound 3.16 µM; stronger effect = lower value.
With `CC1COCCN1c1cc(C2(O)CC3CCC(C2)O3)c2cnn(-c3ccn[nH]3)c2n1` (stereo unspecified) + COC1C(OC(N)=O)C(O)C(Oc2ccc3c(O)c(NC(=O)c4ccc(O)c(CC=C(C)C)c4)c(=O)oc3c2C)OC1(C)C, the viability, T/C was 33.3%.
As to `O=C(Nc1ccc(O)c(NS(=O)(=O)c2ccc(F)cc2)c1)c1ccc(-c2ccccc2)cc1` + COC1C(OC(N)=O)C(O)C(Oc2ccc3c(O)c(NC(=O)c4ccc(O)c(CC=C(C)C)c4)c(=O)oc3c2C)OC1(C)C, the viability, T/C was 139%.
As for `COc1cc(C2c3cc4c(cc3C(OC3OC5COC(C)OC5C(O)C3O)C3COC(=O)C23)OCO4)cc(OC)c1O` (stereo unspecified) + Cc1cccc(N(C)C(=O)C2C(O)CCN2c2nc(C)cc(C(F)(F)F)c2C#N)c1, the viability, T/C is 70.1%.

Staying with this experiment, now noted: second compound 0.316 µM; first compound 10 µM; stronger effect = lower value.
Consider `CC1COCCN1c1cc(C2(O)CC3CCC(C2)O3)c2cnn(-c3ccn[nH]3)c2n1` (stereo unspecified) + COC1C(OC(N)=O)C(O)C(Oc2ccc3c(O)c(NC(=O)c4ccc(O)c(CC=C(C)C)c4)c(=O)oc3c2C)OC1(C)C, for which the viability, T/C was 13.2%.
Regarding `O=C(Nc1ccc(O)c(NS(=O)(=O)c2ccc(F)cc2)c1)c1ccc(-c2ccccc2)cc1` + COC1C(OC(N)=O)C(O)C(Oc2ccc3c(O)c(NC(=O)c4ccc(O)c(CC=C(C)C)c4)c(=O)oc3c2C)OC1(C)C, the viability, T/C is 73.8%.
In the case of `COc1cc(C2c3cc4c(cc3C(OC3OC5COC(C)OC5C(O)C3O)C3COC(=O)C23)OCO4)cc(OC)c1O` (stereo unspecified) + Cc1cccc(N(C)C(=O)C2C(O)CCN2c2nc(C)cc(C(F)(F)F)c2C#N)c1, the viability, T/C is 52.6%.

Staying with this experiment, now noted: second compound 1 µM; first compound 0.0316 µM; stronger effect = lower value.
On to `CC1COCCN1c1cc(C2(O)CC3CCC(C2)O3)c2cnn(-c3ccn[nH]3)c2n1` (stereo unspecified) + COC1C(OC(N)=O)C(O)C(Oc2ccc3c(O)c(NC(=O)c4ccc(O)c(CC=C(C)C)c4)c(=O)oc3c2C)OC1(C)C, for which the viability, T/C is 77.4%.
As to `O=C(Nc1ccc(O)c(NS(=O)(=O)c2ccc(F)cc2)c1)c1ccc(-c2ccccc2)cc1` + COC1C(OC(N)=O)C(O)C(Oc2ccc3c(O)c(NC(=O)c4ccc(O)c(CC=C(C)C)c4)c(=O)oc3c2C)OC1(C)C, the viability, T/C was 103%.
In the case of `COc1cc(C2c3cc4c(cc3C(OC3OC5COC(C)OC5C(O)C3O)C3COC(=O)C23)OCO4)cc(OC)c1O` (stereo unspecified) + Cc1cccc(N(C)C(=O)C2C(O)CCN2c2nc(C)cc(C(F)(F)F)c2C#N)c1, the viability, T/C was 86.2%.

The experiment is the same for the next values; noted with them: second compound 1 µM; first compound 0.1 µM; stronger effect = lower value.
Regarding `CC1COCCN1c1cc(C2(O)CC3CCC(C2)O3)c2cnn(-c3ccn[nH]3)c2n1` (stereo unspecified) + COC1C(OC(N)=O)C(O)C(Oc2ccc3c(O)c(NC(=O)c4ccc(O)c(CC=C(C)C)c4)c(=O)oc3c2C)OC1(C)C, the viability, T/C is 54.9%.
As for `O=C(Nc1ccc(O)c(NS(=O)(=O)c2ccc(F)cc2)c1)c1ccc(-c2ccccc2)cc1` + COC1C(OC(N)=O)C(O)C(Oc2ccc3c(O)c(NC(=O)c4ccc(O)c(CC=C(C)C)c4)c(=O)oc3c2C)OC1(C)C, the viability, T/C was 115%.
Turning to `COc1cc(C2c3cc4c(cc3C(OC3OC5COC(C)OC5C(O)C3O)C3COC(=O)C23)OCO4)cc(OC)c1O` (stereo unspecified) + Cc1cccc(N(C)C(=O)C2C(O)CCN2c2nc(C)cc(C(F)(F)F)c2C#N)c1, the viability, T/C was 83.6%.

Still in this experiment, the particulars now being: second compound 1 µM; first compound 0.316 µM; stronger effect = lower value.
On to `CC1COCCN1c1cc(C2(O)CC3CCC(C2)O3)c2cnn(-c3ccn[nH]3)c2n1` (stereo unspecified) + COC1C(OC(N)=O)C(O)C(Oc2ccc3c(O)c(NC(=O)c4ccc(O)c(CC=C(C)C)c4)c(=O)oc3c2C)OC1(C)C, for which the viability, T/C is 42.4%.
As to `O=C(Nc1ccc(O)c(NS(=O)(=O)c2ccc(F)cc2)c1)c1ccc(-c2ccccc2)cc1` + COC1C(OC(N)=O)C(O)C(Oc2ccc3c(O)c(NC(=O)c4ccc(O)c(CC=C(C)C)c4)c(=O)oc3c2C)OC1(C)C, the viability, T/C is 114%.
In the case of `COc1cc(C2c3cc4c(cc3C(OC3OC5COC(C)OC5C(O)C3O)C3COC(=O)C23)OCO4)cc(OC)c1O` (stereo unspecified) + Cc1cccc(N(C)C(=O)C2C(O)CCN2c2nc(C)cc(C(F)(F)F)c2C#N)c1, the viability, T/C was 62%.

The same experiment, now with this note: second compound 1 µM; first compound 1 µM; stronger effect = lower value.
As to `CC1COCCN1c1cc(C2(O)CC3CCC(C2)O3)c2cnn(-c3ccn[nH]3)c2n1` (stereo unspecified) + COC1C(OC(N)=O)C(O)C(Oc2ccc3c(O)c(NC(=O)c4ccc(O)c(CC=C(C)C)c4)c(=O)oc3c2C)OC1(C)C, the viability, T/C was 32.2%.
For the molecule `O=C(Nc1ccc(O)c(NS(=O)(=O)c2ccc(F)cc2)c1)c1ccc(-c2ccccc2)cc1` + COC1C(OC(N)=O)C(O)C(Oc2ccc3c(O)c(NC(=O)c4ccc(O)c(CC=C(C)C)c4)c(=O)oc3c2C)OC1(C)C, the viability, T/C is 107%.
For `COc1cc(C2c3cc4c(cc3C(OC3OC5COC(C)OC5C(O)C3O)C3COC(=O)C23)OCO4)cc(OC)c1O` (stereo unspecified) + Cc1cccc(N(C)C(=O)C2C(O)CCN2c2nc(C)cc(C(F)(F)F)c2C#N)c1, the viability, T/C is 45.9%.

Still in this experiment, the particulars now being: second compound 1 µM; first compound 3.16 µM; stronger effect = lower value.
Consider `CC1COCCN1c1cc(C2(O)CC3CCC(C2)O3)c2cnn(-c3ccn[nH]3)c2n1` (stereo unspecified) + COC1C(OC(N)=O)C(O)C(Oc2ccc3c(O)c(NC(=O)c4ccc(O)c(CC=C(C)C)c4)c(=O)oc3c2C)OC1(C)C, for which the viability, T/C was 29.5%.
As for `O=C(Nc1ccc(O)c(NS(=O)(=O)c2ccc(F)cc2)c1)c1ccc(-c2ccccc2)cc1` + COC1C(OC(N)=O)C(O)C(Oc2ccc3c(O)c(NC(=O)c4ccc(O)c(CC=C(C)C)c4)c(=O)oc3c2C)OC1(C)C, the viability, T/C is 105%.
Consider `COc1cc(C2c3cc4c(cc3C(OC3OC5COC(C)OC5C(O)C3O)C3COC(=O)C23)OCO4)cc(OC)c1O` (stereo unspecified) + Cc1cccc(N(C)C(=O)C2C(O)CCN2c2nc(C)cc(C(F)(F)F)c2C#N)c1, for which the viability, T/C is 70.6%.

Still in this experiment, the particulars now being: second compound 1 µM; first compound 10 µM; stronger effect = lower value.
In the case of `CC1COCCN1c1cc(C2(O)CC3CCC(C2)O3)c2cnn(-c3ccn[nH]3)c2n1` (stereo unspecified) + COC1C(OC(N)=O)C(O)C(Oc2ccc3c(O)c(NC(=O)c4ccc(O)c(CC=C(C)C)c4)c(=O)oc3c2C)OC1(C)C, the viability, T/C was 12.7%.
As for `O=C(Nc1ccc(O)c(NS(=O)(=O)c2ccc(F)cc2)c1)c1ccc(-c2ccccc2)cc1` + COC1C(OC(N)=O)C(O)C(Oc2ccc3c(O)c(NC(=O)c4ccc(O)c(CC=C(C)C)c4)c(=O)oc3c2C)OC1(C)C, the viability, T/C is 75.9%.
Take `COc1cc(C2c3cc4c(cc3C(OC3OC5COC(C)OC5C(O)C3O)C3COC(=O)C23)OCO4)cc(OC)c1O` (stereo unspecified) + Cc1cccc(N(C)C(=O)C2C(O)CCN2c2nc(C)cc(C(F)(F)F)c2C#N)c1: the viability, T/C was 58.8%.

Staying with this experiment, now noted: second compound 3.16 µM; first compound 0.0316 µM; stronger effect = lower value.
Turning to `CC1COCCN1c1cc(C2(O)CC3CCC(C2)O3)c2cnn(-c3ccn[nH]3)c2n1` (stereo unspecified) + COC1C(OC(N)=O)C(O)C(Oc2ccc3c(O)c(NC(=O)c4ccc(O)c(CC=C(C)C)c4)c(=O)oc3c2C)OC1(C)C, the viability, T/C is 64.3%.
With `O=C(Nc1ccc(O)c(NS(=O)(=O)c2ccc(F)cc2)c1)c1ccc(-c2ccccc2)cc1` + COC1C(OC(N)=O)C(O)C(Oc2ccc3c(O)c(NC(=O)c4ccc(O)c(CC=C(C)C)c4)c(=O)oc3c2C)OC1(C)C, the viability, T/C is 87.7%.
`COc1cc(C2c3cc4c(cc3C(OC3OC5COC(C)OC5C(O)C3O)C3COC(=O)C23)OCO4)cc(OC)c1O` (stereo unspecified) + Cc1cccc(N(C)C(=O)C2C(O)CCN2c2nc(C)cc(C(F)(F)F)c2C#N)c1: the viability, T/C was 83%.

The same experiment, now with this note: second compound 3.16 µM; first compound 0.1 µM; stronger effect = lower value.
As for `CC1COCCN1c1cc(C2(O)CC3CCC(C2)O3)c2cnn(-c3ccn[nH]3)c2n1` (stereo unspecified) + COC1C(OC(N)=O)C(O)C(Oc2ccc3c(O)c(NC(=O)c4ccc(O)c(CC=C(C)C)c4)c(=O)oc3c2C)OC1(C)C, the viability, T/C is 54.5%.

For the origin of these results see PubChem BioAssay AID1963831 (Molecular Pharmacology Branch, DTP, NCI, 2024).
